Experimental data taken from article PMC8786932, “Bicyclic azetidines target acute and chronic stages of Toxoplasma gondii by inhibiting parasite phenylalanyl t-RNA synthetase” (Nature Communications, 2022).
“And” between values parts separate entries of the source, which are not always exact repeats. Equal values may be shown once. Read-outs that look alike come from different tables or passages of the source.

Experiments:
C. parvum [1] = settings: Fig 2A Tg_Pf_Cp EC50s; previously reported values, reference not visible in the shown part; cited from earlier work
C. parvum [2] = settings: C. parvum mouse model; cited from earlier work
[3] = tested on: N. caninum expressing lacZ; test: Neospora caninum β-galactosidase assay; assay type: cell-based; settings: Neospora caninum
Protocol: β-galactosidase assays were conducted using tissue culture grade 96-well plates (TPP) containing confluent monolayers of HFF cells. A 10-point compound dilution series (2-fold) for each compound was generated as described above (2X concentration, 0.1% final DMSO). Growth of the N. caninum strain expressing lacZ was monitoring using a β-galactosidase (β-gal) assay as described in[21] with the following modifications. N. caninum lacZ expressing parasites (1 × 10^3) were added (in 100 μL volume) into 96-well plates containing HFF monolayers to reach final compound concentration (5.0 μM to 0.002 μM in 200 μL total volume). Plates were incubated at 37 °C, 5% CO2 for 72 h prior to completing β-gal assay as previously described[23],[27],[51]. Briefly, parasite containing monolayers were lysed with 1.0% Triton X-100 and β-gal activity determined by adding 1 mM chlorophenolred-β-D-galactopyranoside followed by monitoring absorption at 570 nm on a Cytation 3 multi-mode imager (BioTek), as described.

[4] = mouse; cited from earlier work
[5] = target: T1, recombinant wild-type TgPheRS (Toxoplasma gondii, UniProt A0A125YPN6); test: Malachite green aminoacylation enzyme assay, wild-type TgPheRS; assay type: biochemical; settings: for Tg PheRS enzyme assay raw signal: replicates
T1 sequence (A0A125YPN6 1-525): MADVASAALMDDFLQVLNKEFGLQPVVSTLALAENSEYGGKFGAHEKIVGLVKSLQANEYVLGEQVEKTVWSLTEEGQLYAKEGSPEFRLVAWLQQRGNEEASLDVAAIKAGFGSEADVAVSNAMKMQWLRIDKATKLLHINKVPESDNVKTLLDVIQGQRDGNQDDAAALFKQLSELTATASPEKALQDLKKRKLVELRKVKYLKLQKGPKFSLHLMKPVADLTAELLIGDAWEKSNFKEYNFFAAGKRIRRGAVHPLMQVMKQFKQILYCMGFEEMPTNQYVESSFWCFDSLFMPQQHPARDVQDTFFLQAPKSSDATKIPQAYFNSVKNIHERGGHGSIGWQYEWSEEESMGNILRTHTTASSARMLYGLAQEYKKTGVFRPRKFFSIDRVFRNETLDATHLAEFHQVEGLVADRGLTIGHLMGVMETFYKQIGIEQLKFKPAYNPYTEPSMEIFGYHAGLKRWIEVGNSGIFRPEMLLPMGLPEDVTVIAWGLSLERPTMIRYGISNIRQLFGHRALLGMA
T1 sequence (S8EZ50 1-675 partner): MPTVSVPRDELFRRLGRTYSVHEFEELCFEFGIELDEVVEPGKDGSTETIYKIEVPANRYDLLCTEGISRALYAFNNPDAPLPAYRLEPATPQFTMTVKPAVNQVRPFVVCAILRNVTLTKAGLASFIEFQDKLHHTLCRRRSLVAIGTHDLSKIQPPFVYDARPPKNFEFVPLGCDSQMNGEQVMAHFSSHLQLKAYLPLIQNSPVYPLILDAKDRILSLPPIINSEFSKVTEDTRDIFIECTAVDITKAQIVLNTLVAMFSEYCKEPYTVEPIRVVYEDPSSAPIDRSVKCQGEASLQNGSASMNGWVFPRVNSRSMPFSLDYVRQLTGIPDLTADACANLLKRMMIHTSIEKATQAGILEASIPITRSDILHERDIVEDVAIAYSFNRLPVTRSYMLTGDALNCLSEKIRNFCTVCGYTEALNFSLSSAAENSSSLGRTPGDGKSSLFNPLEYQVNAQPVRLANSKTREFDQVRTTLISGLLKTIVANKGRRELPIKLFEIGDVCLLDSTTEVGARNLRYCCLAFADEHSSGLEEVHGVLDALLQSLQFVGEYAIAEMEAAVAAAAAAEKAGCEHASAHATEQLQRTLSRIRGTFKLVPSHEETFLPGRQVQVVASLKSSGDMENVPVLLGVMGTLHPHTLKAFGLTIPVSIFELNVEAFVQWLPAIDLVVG

TgPheRS V262A M484I = target: T2, TgPheRS V262A M484I (Toxoplasma gondii, UniProt A0A125YPN6, M484I/V262A); test: Enzyme assay, TgPheRS V262A M484I double mutant; assay type: biochemical; settings: for enzyme assay readout (raw): V262A / M484I
T2 sequence (A0A125YPN6 1-525 V262A/M484I): T1 sequence (A0A125YPN6 1-525)
T2 sequence (S8EZ50 1-675 partner): T1 sequence (S8EZ50 1-675 partner)

TgPheRS[M484I] = target: T3, TgPheRS[M484I] (Toxoplasma gondii, UniProt A0A125YPN6, M484I); test: Enzyme assay, TgPheRS M484I; assay type: biochemical; settings: for enzyme assay readout (raw): M484I
T3 sequence (A0A125YPN6 1-525 M484I): T1 sequence (A0A125YPN6 1-525)
T3 sequence (S8EZ50 1-675 partner): T1 sequence (S8EZ50 1-675 partner)

TgPheRS[V262A] = TgPheRS[V262A] (Toxoplasma gondii, UniProt A0A125YPN6, V262A); test: Enzyme assay, TgPheRS V262A; assay type: biochemical; settings: Table S4, V262A; read-out: IC50 (enzyme inhibition)

SMILES: COc1ccc(NC(=O)N2CCCCN3[C@H](CO)[C@H](c4ccc(C#Cc5ccccc5)cc4)[C@@H]3C2)cc1 [BRD3444]
- EC50 (C. parvum [1]): 15 nM
- reduction of oocyst shedding (C. parvum [2]): 96%

SMILES: COc1ccc(NC(=O)N2CCCCN3[C@H](CN(C)C)[C@H](c4ccc(C#Cc5ccccc5)cc4)[C@@H]3C2)cc1 [BRD7929]
- EC50 ([3]; Table S3, 72 h, lacZ, read-out: N. caninum EC50): 42 nM
- EC50 ([3]; read-out: N. caninum (EC50, Fig S2 source data)): 42.4 nM
- oral bioavailability [4]: 80%
- IC50 [5]: 31 nM
- Tg PheRS enzyme assay raw signal ([5]; BRD7929 0.000001 μM): 0.2010 (2×) and 0.1986
- Tg PheRS enzyme assay raw signal ([5]; BRD7929 0.000010 μM): 0.1950 and 0.1940 and 0.1990
- Tg PheRS enzyme assay raw signal ([5]; BRD7929 0.000100 μM): 0.1980 and 0.1900 and 0.1990
- Tg PheRS enzyme assay raw signal ([5]; BRD7929 0.001000 μM): 0.1940 and 0.1790 and 0.1870
- Tg PheRS enzyme assay raw signal ([5]; BRD7929 0.010000 μM): 0.1697 and 0.1750 and 0.1724
- Tg PheRS enzyme assay raw signal ([5]; BRD7929 0.100000 μM): 0.1290 and 0.1332 and 0.1400
- Tg PheRS enzyme assay raw signal ([5]; BRD7929 1.000000 μM): 0.1100 and 0.1180 and 0.1090
- Tg PheRS enzyme assay raw signal ([5]; BRD7929 10.000000 μM): 0.0928 and 0.1144 and 0.1108
- Tg PheRS enzyme assay raw signal ([5]; BRD7929 100.000000 μM): 0.1051 and 0.0940 and 0.1066
- enzyme assay readout (raw, malachite green, 620 nm) ([5]; WT, BRD7929 100.000000 μM): 0.1051 and 0.0940 and 0.1066
- IC50 (TgPheRS V262A M484I; Table S4, V262A-M484I, read-out: IC50 (enzyme inhibition)): 197 nM
- enzyme assay readout (raw) (TgPheRS V262A M484I; 0.000005 μM): 0.3462 and 0.3680 and 0.4006
- enzyme assay readout (raw) (TgPheRS V262A M484I; 0.000050 μM): 0.3131 and 0.3315 and 0.3158
- enzyme assay readout (raw) (TgPheRS V262A M484I; 0.000500 μM): 0.3040 and 0.3143 and 0.2881
- enzyme assay readout (raw) (TgPheRS V262A M484I; 0.005000 μM): 0.2789 and 0.2890 and 0.2929
- enzyme assay readout (raw) (TgPheRS V262A M484I; 0.050000 μM): 0.2807 and 0.2760 and 0.2780
- enzyme assay readout (raw) (TgPheRS V262A M484I; 0.500000 μM): 0.2333 and 0.2480 and 0.2628
- enzyme assay readout (raw) (TgPheRS V262A M484I; 5.000000 μM): 0.2051 and 0.1829 and 0.2098
- enzyme assay readout (raw) (TgPheRS V262A M484I; 50.000000 μM): 0.1004 and 0.1152 and 0.1172
- enzyme assay readout (raw) (TgPheRS[M484I]; 0.000050 μM): 0.2597 and 0.2568 and 0.2561
- enzyme assay readout (raw) (TgPheRS[M484I]; 0.000500 μM): 0.2555 and 0.2526 and 0.2544
- enzyme assay readout (raw) (TgPheRS[M484I]; 0.005000 μM): 0.2503 and 0.2478 and 0.2487
- enzyme assay readout (raw) (TgPheRS[M484I]; 0.050000 μM): 0.2472 and 0.2441 and 0.2410
- enzyme assay readout (raw) (TgPheRS[M484I]; 0.500000 μM): 0.2388 and 0.2402 and 0.2378
- enzyme assay readout (raw) (TgPheRS[M484I]; 5.000000 μM): 0.2341 and 0.2345 and 0.2337
- enzyme assay readout (raw) (TgPheRS[M484I]; 50.000000 μM): 0.2266 and 0.2241
- IC50 (TgPheRS[M484I]; Table S4, M484I, read-out: IC50 (enzyme inhibition)): 135 nM
- IC50 (TgPheRS[V262A]): 207 nM
